According to US10342796B2, “Acrylanilide derivative, preparation method, and applications thereof in pharmacy” (Ancureall Pharmaceutical (Shanghai) Co., Ltd., priority 2015, dated 2019):
Read-outs that look alike come from different tables or passages of the source.

How the values were obtained:
[1] = tested on: H460 (EGFR wt, Kras G61H); experiment: Growth inhibition GI50 in vitro (CCK8/MTT, 72 h); format: cell-based, human; settings: Homo sapiens, NCI-H460; EGFR wild type cell line; range of GI50; read-out: GI50 H460
[2] = tested on: H1299 (EGFR wt, Nras Q61K); experiment: Growth inhibition GI50 in vitro (CCK8/MTT, 72 h); format: cell-based, human; settings: Homo sapiens, NCI-H1299; EGFR wild type cell line; range of GI50; read-out: GI50 H1299
[3] = tested on: A431 (EGFR WT, amplification and high expression); experiment: Growth inhibition GI50 in vitro (CCK8/MTT, 72 h); format: cell-based, human; settings: Homo sapiens, A-431; EGFR wild type cell line; range of GI50; read-out: GI50 A431
A549 (EGFR WT) = experiment: Growth inhibition GI50 in vitro (CCK8/MTT, 72 h); format: cell-based, human; settings: Homo sapiens, A549
SK-BR-3 (Her2 amp) = experiment: Growth inhibition GI50 in vitro (CCK8/MTT, 72 h); format: cell-based, human; settings: Homo sapiens, SK-BR-3; HER2 positive cell line; range of GI50; read-out: GI50 SK-BR-3
PC-9 tumor cells = experiment: In vivo tumor growth inhibition, xenograft; parameters: species or system Bab/c nude mice; settings: Mus musculus, po, 456 h; 25 mg/kg intragastric once daily, day 19; read-out: TGI (%) PC-9
Text: (§1) Tumor xenograft models of immunodeficient mice are an effective tool to test the antitumor activity of the compound in vivo. Generally, the effectiveness of human tumor cell xenograft is positively correlated with the clinical treatment of human tumor. Bab/c immunodeficient mouse is one of the most commonly used xenograft animals with human tumor cells. In order to test whether the present compounds can inhibit the in vivo growth of the tumor cells expressing EGFR mutantion or HER2/ErbB2 overexpression, H1975, PC-9 and NCI-N87 cell lines were used in the experiments. When H1975, PC-9 and NCI-N87 cells were in growth logarithmic phase, they were digested with pancreatin. An appropriate amount of 1×RPMI1640 culture medium (serum-free) was added to stop digestion. The cells were collected to a 50 ml centrifuge tube (Corning), and centrifuged at 1700 rm for 3 min. The supernatant was discard, then the cells were suspended with 1×RPMI1640 culture medium and count the number. […] cells/mL was prepared and then placed on ice. 5˜10×10^6 (0.2 ml) cells were inoculated subcutaneously on the right side of the back of 6˜8 week old female Bab/c nude mice (about 20 g in weight). When the tumor average volume growed to 100˜200 mm^3, the mice were randomly divide into groups (3-6 mice per group), and marked by ear pierced tags and weighted. The test compounds and the reference compound (with a purity over 99% and individual impurity not higher than 0.2%) were formulated to emulsion suspension with CM (30% polyethylene glycol 400, 0.5% Tween-80 and 2.5% propylene glycol) respectively. Intragastric administration was continued once daily at a dosage of 25 mg/kg (0.1 ml/10 g mouse). The tumor was measured 3 times per week. When the average volume of the tumor in CM control group was up to 1500 mm^3 or after administration for 30 days, the experiment was ended.
(§2) The volume of tumor (V) was calculated as V=½*a*b^2 (a represents length of tumors, b represents width of tumors). Tumor growth inhibition (TGI) was calculated as: TGI (%)=100−(VT−VT0)/(VC−VC0)*100%; where VT0 and VT are the tumor volumes of the beginning and finish days of dosed groups; and VC0 and VC are the tumor volumes of the beginning and finish days for the control group, respectively.

H1975 tumor cells = experiment: In vivo tumor growth inhibition, xenograft; parameters: species or system Bab/c nude mice; settings: Mus musculus, NCI-H1975, po, 456 h; 25 mg/kg intragastric once daily, day 19; read-out: TGI (%) H1975
Text: as §1, §2

HCC827 (EGFR dE746-A750) = experiment: Growth inhibition GI50 in vitro (CCK8/MTT, 72 h); format: cell-based, human; settings: Homo sapiens, HCC827; EGFR mutant cell line; range of GI50; read-out: GI50 HCC827
PC-9 (EGFR dE746-A750) = experiment: Growth inhibition GI50 in vitro (CCK8/MTT, 72 h); format: cell-based, human; settings: Homo sapiens
H1975 (EGFR L858R/T790M) = experiment: Growth inhibition GI50 in vitro (CCK8/MTT, 72 h); format: cell-based, human; settings: Homo sapiens, NCI-H1975
[4] = tested on: PC-9ER (EGFR delE746-A750/T790M); experiment: Growth inhibition GI50 in vitro (CCK8/MTT, 72 h); format: cell-based, human; settings: Homo sapiens, PC-9/ER; EGFR mutant cell line; range of GI50; read-out: GI50 PC9ER
N87 (HER2 Amp) = experiment: Growth inhibition GI50 in vitro (CCK8/MTT, 72 h); format: cell-based, human; settings: Homo sapiens
AU565 (Her2 amp) = experiment: Growth inhibition GI50 in vitro (CCK8/MTT, 72 h); format: cell-based, human; settings: Homo sapiens, AU565; HER2 positive cell line; range of GI50; read-out: GI50 AU-565
[5] = tested on: NCI-H1781 (HER2 exon 20 G776VC mutation); experiment: Growth inhibition GI50 in vitro (CCK8/MTT, 72 h); format: cell-based; settings: Homo sapiens, NCI-H1781; Table 16; 1000 nM to 0.03 nM serial dilution; read-out: GI50 H1781 (HER2 G776VC)
Experimental: Human lung adenocarcinoma cell line Calu-3 (ATCC) was cultured with 1×MEM complete medium (10% FBS, 1% double-antibiotics, 1% NEAA (Gibco), 2 mM glutamine and 1 mM of sodium pyruvate). Human breast cancer cell line SK-BR-3 was cultured with McCOY'S5A complete medium (10% FBS). Human colon cancer cell line SNU1040 (HER2 V777M positive) (ATCC) and human bronchoalveolar adenocarcinoma cell line NCI-H1781 (expressing HER2 exon 20 G776VC mutation) (ATCC) were cultured with 1×RPMI1640 complete medium (10% FBS), respectively.
(§3) Adherent cells were digested with 0.25% pancreatin-EDTA (Gibco). The suspension cells were collected by centrifugation. The supernatant was discard and the cell pellet was resuspended and counted. Different cell concentrations (5˜10×10^4 cells/mL) were prepared according to the growth cycle of each cell line and then seeded on a 96-well plate (Corning), 100 μL/well. The cells were incubated over night at 37° C., 5% CO2. The compounds were added to the cells on the second day with 2 wells in parallel. The final concentration of organic solvent shall not exceed 1%. The cells were continually incubated for 72 h, and then subjected to MTT assay.
(§4) The present compounds and the reference compounds were dissolved with DMSO (Sigma), respectively. […] The storage concentration of compounds was 10 mM and kept at −20° C. They were diluted by 2 times or 10 times with serial dilution before using.
(§5) Dojindo CCK8 reagent kit was used as MTT assay. […] FC meter was used as microplate reader.
(§6) Adherent cell culture medium was discard and immediately replaced with fresh prepared medium which contains 10% CCK8 reagent (100 μL/well). For the suspension cells, CCK8 was directly added to 10% of the final concentration. The cells were continually incubated for 1˜4 h. When the color of control wells turned to dark yellow, the absorption value was measured at OD450 nm. The cell growth rate was calculated according to the following formula: cell growth rate (%)=100*(T−T0)/(C−T0), T=optical density of drug treatment cell well—optical density of blank control well; T0=optical density of cell well before drug treatment—optical density of blank control well; C=optical density of cell well of solvent control group—optical density of blank control well. The concentration value of 50% inhibition of cell growth (GI50) was calculated. The experiment was independently repeated 1˜3 times, and subject to biological statistical analysis.
Furthermore, the present compounds (99, 136, 205, 211, 212, 213, 216, 229, 230, 231, 232, 233 and 236) were selected to carry out growth inhibition test for HER2/ERBB2 gene amplified or high expressed or mutant tumor cells. Afatinib and AZD9291 were used for references as second- and third-generation inhibitors of EGFR.
Each compound started at 1000 nM as an initial concentration and was diluted by 2 times with serial dilution to 0.03 nM. The GI50 value of each compound was calculated according to Test Example 1.3.

H292 (EGFR WT) = experiment: Growth inhibition GI50 in vitro (CCK8/MTT, 72 h); format: cell-based; settings: Homo sapiens, NCI-H292; Table 15; 1000 nM to 0.03 nM serial dilution; read-out: GI50 H292 (EGFR WT)
Text: EGFR wild type cell lines: human epidermal cancer cell line A431 (EGFR WT, amplification and high expression, from Shanghai Cell Bank of Chinese Academy of Sciences and ATCC), NSCLC cell lines NCI-H460 (EGFR WT, Kras G61H and PI3KCA E545K mutants, ATCC) and NCI-H1299 (EGFR WT, ATCC), melanoma cell line A375 (EGFR WT and BRAF V600E mutant, from Shanghai Cell Bank of Chinese Academy of Sciences, ATCC), human lung cancer cell line NCI-H292 (EGFR WT, from human lung mucoepidermoid carcinoma/lymphatic metastasis, purchased from Shanghai Cell Bank of Chinese Academy of Sciences) were cultured with 1×RPMI1640 complete medium which was supplement with 10% FBS. NSCLC cell line A549 (EGFR WT and Kras G12S mutant, from Shanghai Cell Bank of Chinese Academy of Sciences) was cultured with 1×Ham'S F12K complete medium which was supplement with 10% FBS, 1% double-antibiotics and 2 mM glutamine.
as §3, with “The” for “Adherent cells were digested with 0.25% pancreatin-EDTA (Gibco). The”
as §4, §5
as §6, with “The concentration value of 50% inhibition of cell growth (GI50) was calculated.” left out

[6] = Table 13, 72 h, read-out: Range of GI50 A549 (EGFR WT)
[7] = Table 15, 1000 nM to 0.03 nM serial dilution, read-out: GI50 A549 (EGFR WT)
[8] = Table 13, 72 h, read-out: Range of GI50 PC-9 (EGFR dE746-A750)
[9] = Table 15, 1000 nM to 0.03 nM serial dilution, read-out: GI50 PC-9 (EGFR dE746-A750)
[10] = Table 13, 72 h, read-out: Range of GI50 H1975 (EGFR L858R/T790M)
[11] = Table 15, 1000 nM to 0.03 nM serial dilution, read-out: GI50 H1975 (EGFR L858R/T790M)
[12] = Table 13, 72 h, read-out: Range of GI50 N87 (HER2 Amp)
[13] = Table 16, 1000 nM to 0.03 nM serial dilution, read-out: GI50 N87 (HER2 amp)

C=CC(=O)Nc1cc(Nc2cc(-c3cn(C)c4ccccc34)ncn2)c(OC)cc1N1CCC(N2CCN(C)CC2)CC1 [Compound 176, N-(4-methoxyl-5-(6-(1-methyl-1H-indol-3-yl)-pyrimidin-4-ylamino)-2-(4-(4-methylpiperazin-1-yl)-piperidin-1-yl)-phenyl)-acrylamide]
GI50 [1]: > 1000 nM
GI50 [2]: > 1000 nM
GI50 [3]: 100 to 1000 nM
GI50 (A549 (EGFR WT); EGFR wild type cell line, range of GI50, read-out: GI50 A549): > 1000 nM
GI50 (SK-BR-3 (Her2 amp)): 10 to 100 nM
inhibition in vivo at 25 mg/kg (PC-9 tumor cells): 98.6%
inhibition in vivo at 25 mg/kg (H1975 tumor cells): 98.2%
GI50 (HCC827 (EGFR dE746-A750)): < 10 nM
GI50 (PC-9 (EGFR dE746-A750); EGFR mutant cell line, range of GI50, read-out: GI50 PC-9): < 10 nM
GI50 (H1975 (EGFR L858R/T790M); EGFR mutant cell line, range of GI50, read-out: GI50 H1975): 10 to 100 nM
GI50 [4]: 10 to 100 nM
GI50 (N87 (HER2 Amp); HER2 positive cell line, range of GI50, read-out: GI50 N87): 10 to 100 nM
GI50 (AU565 (Her2 amp)): 100 to 1000 nM

C=CC(=O)Nc1cc(Nc2nccc(-n3ccc4c(OC)cc(Br)cc43)n2)c(OC)cc1N(C)CCN(C)C [Compound 211, N-(5-(4-(4-methoxyl-6-bromo-1H-indol-1-yl)-pyrimidin-2-ylamino)-2-(2-(dimethylamino-ethyl)-methyl-amino)-4-methoxyl-phenyl)-acrylamide]
GI50 (A549 (EGFR WT); [6]): > 1000 nM
GI50 (A549 (EGFR WT); [7]): > 1000 nM
GI50 [5]: 31.5 nM
GI50 (H292 (EGFR WT)): > 1000 nM
GI50 (PC-9 (EGFR dE746-A750); [8]): < 10 nM
GI50 (PC-9 (EGFR dE746-A750); [9]): 7.89 nM
GI50 (H1975 (EGFR L858R/T790M); [10]): 10 to 100 nM
GI50 (H1975 (EGFR L858R/T790M); [11]): 19.6 nM
GI50 (N87 (HER2 Amp); [12]): < 10 nM
GI50 (N87 (HER2 Amp); [13]): 6.76 nM

C=CC(=O)Nc1cc(Nc2nccc(-n3ccc4c(OC)cc(F)cc43)n2)c(OC)cc1N(C)CCN(C)C [Compound 212, N-(5-(4-(4-methoxyl-6-fluoro-1H-indol-1-yl)-pyrimidin-2-ylamino)-2-(2-(dimethylamino-ethyl)-methyl-amino)-4-methoxyl-phenyl)-acrylamide]
GI50 (A549 (EGFR WT); [6]): > 1000 nM
GI50 (A549 (EGFR WT); [7]): > 1000 nM
GI50 [5]: 15.6 nM
GI50 (H292 (EGFR WT)): > 1000 nM
GI50 (PC-9 (EGFR dE746-A750); [8]): < 10 nM
GI50 (PC-9 (EGFR dE746-A750); [9]): 6.82 nM
GI50 (H1975 (EGFR L858R/T790M); [10]): < 10 nM
GI50 (H1975 (EGFR L858R/T790M); [11]): 8.56 nM
GI50 (N87 (HER2 Amp); [12]): < 10 nM
GI50 (N87 (HER2 Amp); [13]): 2.67 nM

C=CC(=O)Nc1cc(Nc2nccc(-n3ccc4c(OC)cc(Cl)cc43)n2)c(OC)cc1N(C)CCN(C)C [Compound 213]
GI50 (A549 (EGFR WT); [6]): > 1000 nM
GI50 (A549 (EGFR WT); [7]): > 1000 nM
GI50 [5]: 15.6 nM
GI50 (H292 (EGFR WT)): > 1000 nM
GI50 (PC-9 (EGFR dE746-A750); [8]): < 10 nM
GI50 (PC-9 (EGFR dE746-A750); [9]): 7.83 nM
GI50 (H1975 (EGFR L858R/T790M); [10]): < 10 nM
GI50 (H1975 (EGFR L858R/T790M); [11]): 9.8 nM
GI50 (N87 (HER2 Amp); [12]): < 10 nM
GI50 (N87 (HER2 Amp); [13]): 1.95 nM
